Assay [1] has as its target T1, hMT2; MT2 melatonin receptor (Homo sapiens, UniProt P49286).
T1 construct: gene MTNR1B
T1 sequence (P49286 1-362): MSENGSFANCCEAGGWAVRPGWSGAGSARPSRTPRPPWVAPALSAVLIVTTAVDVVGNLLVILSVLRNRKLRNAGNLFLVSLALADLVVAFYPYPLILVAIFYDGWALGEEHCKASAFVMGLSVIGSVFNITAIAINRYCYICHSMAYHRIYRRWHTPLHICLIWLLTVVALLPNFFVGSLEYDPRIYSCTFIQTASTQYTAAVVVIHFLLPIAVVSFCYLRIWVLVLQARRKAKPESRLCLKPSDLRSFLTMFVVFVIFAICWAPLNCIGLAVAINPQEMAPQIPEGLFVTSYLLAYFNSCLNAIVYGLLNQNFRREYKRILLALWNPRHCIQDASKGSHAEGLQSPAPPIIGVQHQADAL
The assay can be described thus: […]-[…]-iodomelatonin displacement, CHO-K1 membranes. It counts as binding.

Assay [2] deals with T1, hMT2; MT2 melatonin receptor. The assay can be described thus: […]-GTPγS binding, CHO-K1 membranes. It counts as biochemical. For orientation: Binding of GTPγS marks nucleotide exchange on a G protein.
In assay [3] the target is T2, hMT1; MT1 melatonin receptor (Homo sapiens, UniProt P48039).
T2 construct: gene MTNR1A
The assay can be described thus: […]-GTPγS binding, CHO-K1 membranes. It counts as biochemical. Conditions: read-out: MT1 / pEC50 (converted).

Assay [4] deals with T2, hMT1; MT1 melatonin receptor. The assay can be described thus: […]-[…]-iodomelatonin displacement, CHO-K1 membranes. It counts as binding.
The mark [5] stands for this setting: radioligand […]-[…]-iodomelatonin.
The mark [6] stands for this setting: read-out: MT2 / pEC50 (converted).

Structures are written as SMILES. Read-outs that look alike come from different tables or passages of the source.

T2 sequence (P48039 whole entry): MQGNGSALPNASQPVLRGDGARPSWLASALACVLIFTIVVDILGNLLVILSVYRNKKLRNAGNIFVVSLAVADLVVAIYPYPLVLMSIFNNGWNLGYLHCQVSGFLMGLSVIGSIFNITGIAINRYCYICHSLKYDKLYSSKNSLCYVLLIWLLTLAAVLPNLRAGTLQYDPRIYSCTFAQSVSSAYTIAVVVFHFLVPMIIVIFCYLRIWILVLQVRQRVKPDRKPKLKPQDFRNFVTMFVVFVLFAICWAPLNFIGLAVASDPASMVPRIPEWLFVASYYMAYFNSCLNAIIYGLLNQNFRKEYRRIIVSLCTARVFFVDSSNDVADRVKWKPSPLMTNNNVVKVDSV

In general, Ki refers to the equilibrium dissociation constant of an inhibitor or competing ligand from its target. With `COc1cc(Br)c(Cc2cc(OC)c(OC)cc2CC(=O)OC(C)(C)C)cc1OC` [DIV0879], the figures for the Ki in assay [1] (setting [5]) and in assay [4] were 1.4 ± 0.1 nM and 1780 ± 118 nM, respectively. Besides, the values for the EC50 in assay [2] (setting [6]) and in assay [3] were 1.38 nM and > 10000 nM, respectively.
For the compound `COc1cc(I)c(Cc2cc(OC)c(OC)cc2CC(=O)OC(C)(C)C)cc1OC` [DIV0880], the Ki in assay [1] worked out at 1 ± 0.1 nM; in assay [4], 1200 ± 143 nM. The EC50 in assay [2] (setting [6]) was 0.331 nM; in assay [3], > 10000 nM.
On to `COc1ccc(Cc2cc(OC)c(OC)cc2CC(=O)OC(C)(C)C)cc1OC` [DIV4288], for which the Ki in assay [1] (setting [5]) was found to be 1.4 ± 0.1 nM; in assay [4] (setting [5]) it was 1300 ± 97 nM. For the same compound, the figures for the EC50 in assay [2] (setting [6]) and in assay [3] were 2.04 nM and > 10000 nM, respectively.
Take `COc1cc(F)c(Cc2cc(OC)c(OC)cc2CC(=O)OC(C)(C)C)cc1OC` [DIV6518]: the Ki in assay [1] (setting [5]) was 1.4 ± 0.3 nM; in assay [4] (setting [5]), 630 ± 55 nM. The EC50 in assay [2] (setting [6]) was 1.17 nM; in assay [3], > 10000 nM.
On to `COc1cc(CC(=O)OC(C)(C)C)c(Cc2cc(OC)c(OC)cc2-c2ccccc2)cc1OC` [DIV6519], for which the Ki in assay [1] (setting [5]) is 0.49 ± 0.01 nM; in assay [4] (setting [5]), 44 ± 7 nM. In addition, the EC50 in assay [2] (read-out: MT1 / pEC50 (converted)) and in assay [3] was > 10000 nM each time.

For the origin of these results see article PMC5535840 (International Journal of Molecular Sciences, 2017).
